Test results: paper PMC9916762, “Impact of Hydrophobic Chains in Five-Coordinate Glucoconjugate Pt(II) Anticancer Agents” (International Journal of Molecular Sciences, 2023)

Tests used:
[1] = Octanol/water partition coefficient, shake-flask method; type: physicochemical; conditions: n-octanol/water, UV-vis
Description: The partition coefficients in octanol/water (log Po/w) were measured using the shake-flask method, by calculating the equilibrium concentrations through UV spectra (Table 1).
Partition coefficients for the platinum complexes were determined in triplicate in an n-octanol/water system, with different ratios (1:1, 1:2, 2:1). Each complex was dissolved in n-octanol at the concentrations 16.7, 12.5, or 10 μM and subsequently, an appropriate volume of water was added. The mixtures were shaken mechanically for 1 h to ensure the distribution between the two solvent phases. The samples were then centrifuged (13,000 rpm, 10 min). Afterwards, the platinum concentration was determined in the octanol phases by UV–vis spectrophotometry, after collecting a calibration line for each complex. Results are expressed as the logarithm of the partition coefficient of octanol/water (log Po/w), which is the logarithm of the concentration of platinum in the n-octanol divided by its concentration in the aqueous layer.

[2] = test system: immortalized human keratinocytes (HaCaT); assay: MTT cell viability assay, HaCaT; type: cell-based; conditions: 48 h incubation
From the text: The immortalized human keratinocytes (HaCaT) were from Innoprot.

SVT2 cells [3] = assay: Cellular Pt uptake by ICP-MS, SVT2; type: cell-based, murine; conditions: SVT2, 9.8 μM (IC50), 48 h, mean ± S.E.
Description: (§1) In particular, SVT2 and A431 were incubated for 48 h with 1-Me,Me and 1-Oct,Me, using the IC50 value concentrations. At the end of incubation, uptake and cell death mechanisms were evaluated. […] Finally, apoptosis was investigated by Western blot analyses using specific antibodies against pro-caspases 9 and 3.
To study the uptake of the complexes, SVT2 and A431 were incubated for 48 h in the presence of 1-Me,Me and 1-Oct,Me, respectively, at their IC50 concentrations. At the end of incubation, Pt determination was performed by inductively coupled plasma mass spectrometry (ICP-MS, Aurora M90; Bruker, Ettlingen/Leipzig, Germany) in the “Normal Sensitivity” mode. Calibration curves for the quantification of Pt ranged from 0.1 to 100 μg/L and were constructed daily by the analysis of the standard solutions prepared immediately before analysis. All standards used for analysis were prepared in HNO3 solution (2%, v/v). The internal standards were ^89Y and ^115In in both the calibration curve and sample analyses. The linearity was acceptable with an R^2 value greater than 0.9996. The treatment of the cells involved a wet digestion: after centrifugation, cell samples were wet digested with 1 mL of ultrapure HNO3 (67–69%, v/v). The mixture was gently boiled over a water bath (90 °C) for 3 h until a clear solution was obtained. […]

[4] = In-solution stability in DMSO (1H NMR, UV-vis); type: physicochemical; conditions: 50 μM in DMSO, 25 °C, up to 7 days
Description: The stability of the complexes in DMSO-d6, the solvent used to prepare stock solutions for biological experiments, was evaluated by recording their UV–vis absorptions and ^1H-NMR spectra over time.
UV–vis absorption spectra of 1-Me,Me were recorded in DMSO for 5 h and then after 24 h and 7 days (Figure 5). […] In fact, the λmax experienced a blue shift from 278 to 269 nm, giving rise to an isosbestic point at 275 nm. In addition, a decrease in the absorbance of the shoulder at 300 nm is observed, together with an absorbance increase in the shoulder at 260 nm. […] It is highly probable that a slow release of ethene and dmphen can occur. This would lead to the formation of the square planar species of type 4-R,R’, as reported in Scheme 3.
In all cases, no cleavage of the Pt–carbene bond was detected. Figure 6 reports the ^1H NMR spectra of 1-Me,Oct after dissolution, 1.5, 5, and 24 h.
The stability of the 1-R,R’ complexes in DMSO was studied by dissolving 5 mg of each complex in 250 μL of DMSO-d6 and then diluting 200 μL of this solution with 300 μL of DMSO-d6. The stability of the 1-R,R’ complexes in aqueous solvents was studied by dissolving 5 mg of each complex in 250 μL of DMSO-d6 and then diluting 50 μL of this solution with 500 μL of D2O. The ^1H-NMR spectra of the resulting solutions were recorded over time. […]

[5] = In-solution stability in aqueous solvents (1H NMR, UV-vis); type: physicochemical
From the text: Attempts to evaluate their stability in aqueous solutions were complicated due the poor solubility of the complexes in water. Only for 1-Me,Me was it possible to prepare a solution in the mixed solvent D2O:DMSO-d6 10:1. […] To further study the stability of 1-Me,Me in aqueous solvents, UV–vis absorption spectra over time were collected under the two experimental conditions (20% ethylene glycol, 0.1 M sodium acetate buffer at pH 4.0 and 0.6 M sodium nitrate and 2.0 M sodium formate, 0.1 M Hepes buffer at pH 7.5), used to obtain crystals of the adducts with the model protein hen egg white lysozyme (HEWL). HEWL has been used as a model system to study the interaction with proteins of several metallodrugs, including cisplatin [31, 32, 33], oxaliplatin [34, 35], and carboplatin [31, 32]. […] Over time, a red shift of the λmax from 275 to 278 nm and of the peak at 313 nm, which shifted up to 317 nm, was observed. […] Such results convinced us that five-coordinate compounds are the species administered to cells if DMSO stock solutions are immediately diluted in an aqueous medium.
The stability of the 1-R,R’ complexes in DMSO was studied by dissolving 5 mg of each complex in 250 μL of DMSO-d6 and then diluting 200 μL of this solution with 300 μL of DMSO-d6. […] The ^1H-NMR spectra of the resulting solutions were recorded over time. […]

SVT2 cells [6] = assay: Western blot of pro-caspases 9 and 3, SVT2; type: cell-based, murine; conditions: SVT2, 9.8 μM, 48 h
Description: as §1
The SVT2 were seeded on six-well plates at a density of 2.5 × 10^5 cells/well, whereas A431 was seeded at a density of 3 × 10^5 cells/well. After 24 h, cells were treated with 9.8 μM of 1-Me,Me or 2.3 μM 1-Oct,Me. After 48 h of incubation, Western blot analyses were performed by using pro-caspase 9 (Cell Signaling Technology, Danvers, MA, USA) and pro-caspase 3 (Abcam, Cambridge, MA, USA) antibodies, as reported by Del Giudice et al. Protein intensity levels were normalized using β-actin (Sigma-Aldrich, St. Louis, MO, USA). The chemiluminescence detection system was purchased from Bio-Rad (Hercules, CA, USA).

With “Platinum(1+), (2,9-dimethyl-1,10-phenanthroline- N1,N10)(η2-ethene)methyl[1,3-dihydro-1,3-dimethyl-4-[1-[2,3,4,6-tetrakis-O-(acetyl)-β-D-glucopyranosyl]-1H-1,2,3-triazol-4-yl]-2H-imidazol-2-ylidene], 1,1,1-trifluoromethanesulfonate [1-Me,Me]” the “Log Po/w” value [1] was 0.42, the IC50 [2] was 8.4 ± 1.7 µM and the Pt uptake (SVT2 cells [3]) was 0.772 ± 0.010 Pt ng/10^6 cells. The “stability, UV-vis spectra over time” value [4] was “poor stability”, the “stability, UV-vis spectra over time” value ([5]; 50 μM, 2.0 M sodium formate, 0.1 M Hepes buffer pH 7.5) was “stable over time” and the “stability, NMR spectra over time” value ([5]; D2O:DMSO-d6 10:1, after 24 h) was “no appreciable changes”. For the same substance, the “pro-caspases 9 and 3 levels” value (SVT2 cells [6]) was “significant decrease in pro-caspases 9 and 3 levels”.
